Measurements: US7935729B2, “Use of triglyceride oils containing γ-linolenic acid residues and linoleic acid residues for the treatment of neurodegenerative disease” (BTG International Limited, priority 2003, dated 2011)
“Also recorded” adds a separate entry of the source. Marks after values point to notes of the source that are not given here.

How the values were obtained:
[1] = system: MOG-induced CREAE in SJL Mice; assay: MOG-induced CREAE in SJL mice, molecular species comparison of GLA; type: in vivo; conditions: for Mean Clinical Score / No. with EAE: 100 μl of test lipid
Text: γ-Linolenic acid (18:3n -6, GLA) is known to be rapidly converted to longer-chain omega-6 polyunsaturated fatty acids dihomo-γ-linolenic acid and arachidonic acid in vivo (Phylactos et al 1994, Harbige et al 1995, 2000). Therefore to increase the level of membrane long chain omega-6 fatty acids in MS the inventors have reviewed results obtained with several GLA-containing oils:- both fungal (from Mucor javanicus) and plant (Borago officianalis), Evening primrose Oenothera spp. or Blackcurrant Ribes spp) as well as a synthetic tri-GLA oil as GLA delivery systems in an in vivo experimental animal model of MS known as chronic relapsing experimental autoimmune encephalomyelitis (CREAE).
Experimental autoimmune encephalomyelitis (EAE) is an autoimmune inflammatory disease of the CNS, with or without demyelination, inducible in rodents and other mammalian species. […] Chronic relapsing and demyelinating EAE models (CREAE), which are characterised by demyelination and relapse phases, are therefore currently the animal models of choice for MS research (Fazakerley 1997).

EAE [2] = conditions: depending on dose (Harbige et al); cited from earlier work
[3] = system: multiple sclerosis patients; conditions: about 20 g/day; cited from earlier work
EAE [4] = conditions: guinea-pig (Meade et al 1978); cited from earlier work

SMILES	Mean Clinical Score [1]	No. with EAE [1]	Protective effect in CREAE (in words) ([1]; compared with borage oil)	Protection in acute rat EAE (EAE [2])	Duration and severity of relapses of multiple sclerosis [3]	Incidence and severity of EAE (EAE [4])
CCCCC/C=C\C/C=C\C/C=C\CCCCC(=O)OCC [EE-GLA, Ethyl-Ester-GLA]	3.0 ± 0.8	5/6	–	–	–	–
CCCCC/C=C\C/C=C\C/C=C\CCCCC(=O)OCC(COC(=O)CCCC/C=C\C/C=C\C/C=C\CCCCC)OC(=O)CCCC/C=C\C/C=C\C/C=C\CCCCC [TG-GLA, Triacylglycerol-GLA]	1.0 ± 1.3^c	3/6	protective effects similar to that of the borage oil; also recorded: effective at a lower dose level than the borage oil	–	–	–
CCCCC/C=C\C/C=C\CCCCCCCC(=O)O [linoleic acid]	–	–	–	dose-dependent action on the clinical severity but did not abolish it	relapses were less frequent, less severe and of shorter duration than controls	partially suppresses the incidence and severity of EAE
CCCCC/C=C\C/C=C\C/C=C\CCCCC(=O)O [γ-linolenic acid]	–	–	–	fully protective	–	–
